Data: PMC6385482 (2018)

test system: hpDNA (hairpin DNA, 28 bp as printed) (DNA, hairpin) CGCGAATTCGCGTTTTCGCGAATTCGCG; experiment: fluorescence titration, two-site fit with offset; settings: PBS (ion concentrations not given); PBS pH 7.4, room temperature, 1 h; 10 nM compound; site 1 of 2

In order of rising Kd1:
1. CN1CCN(c2ccc3nc(-c4ccc5nc(-c6ccc(OCCCCNC(=O)c7ccc8c(c7)C7(OC8=O)c8ccc(N(C)C)cc8Oc8cc(N(C)C)ccc87)cc6)[nH]c5c4)[nH]c3c2)CC1  14 ± 1 nM
2. CNc1ccc2c(c1)C(C)(C)c1cc(NC)ccc1C21OC(=O)c2ccc(C(=O)NCCCCOc3ccc(-c4nc5ccc(-c6nc7ccc(N8CCN(C)CC8)cc7[nH]6)cc5[nH]4)cc3)cc21  27 ± 3 nM
3. CN1CCN(c2ccc3nc(-c4ccc5nc(-c6ccc(OCCCCNC(=O)c7ccc8c(c7)C7(OC8=O)c8ccc(N(C)C)cc8C(C)(C)c8cc(N(C)C)ccc87)cc6)[nH]c5c4)[nH]c3c2)CC1  65 ± 7 nM

test system: hpDNA (hairpin DNA, 28 bp as printed) (DNA, hairpin) CGCGAATTCGCGTTTTCGCGAATTCGCG; experiment: fluorescence titration, single-site fit; settings: PBS (ion concentrations not given); PBS pH 7.4, room temperature, 1 h; 4 nM compound

Compound `CCOc1ccc(-c2nc3ccc(-c4nc5ccc(N6CCN(C)CC6)cc5[nH]4)cc3[nH]2)cc1` has a Kd1 of 2.6 ± 0.4 nM.

same assay, conditions: PBS (ion concentrations not given); PBS pH 7.4, room temperature, 1 h; 10 nM compound

In order of falling Kd1:
1. CN1CCN(c2ccc3nc(-c4ccc5nc(-c6ccc(OCCCCNC(=O)c7ccc8c(c7)C(=O)OC87c8ccc(N(C)C)cc8[Si](C)(C)c8cc(N(C)C)ccc87)cc6)[nH]c5c4)[nH]c3c2)CC1  4799 ± 201 nM
2. CN1CCN(c2ccc3nc(-c4ccc5nc(-c6ccc(OCCCCNC(=O)c7ccc8c(c7)C(=O)OC87c8ccc(N(C)C)c[c]8[Ge]([CH3])([CH3])[c]8cc(N(C)C)ccc87)cc6)[nH]c5c4)[nH]c3c2)CC1  4374 ± 192 nM
3. CN1CCN(c2ccc3nc(-c4ccc5nc(-c6ccc(OCCCCNC(=O)c7ccc8c(c7)C7(OC8=O)c8ccc(N(C)C)cc8[Si](C)(C)c8cc(N(C)C)ccc87)cc6)[nH]c5c4)[nH]c3c2)CC1  669 ± 26 nM
4. CN1CCN(c2ccc3nc(-c4ccc5nc(-c6ccc(OCCCCNC(=O)c7ccc8c(c7)C7(OC8=O)c8ccc(N(C)C)c[c]8[Ge]([CH3])([CH3])[c]8cc(N(C)C)ccc87)cc6)[nH]c5c4)[nH]c3c2)CC1  572 ± 26 nM
5. CN1CCN(c2ccc3nc(-c4ccc5nc(-c6ccc(OCCCCNC(=O)c7ccc8c(c7)C(=O)OC87c8ccc(N(C)C)cc8Oc8cc(N(C)C)ccc87)cc6)[nH]c5c4)[nH]c3c2)CC1  365 ± 12 nM
6. CN1CCN(c2ccc3nc(-c4ccc5nc(-c6ccc(OCCCCNC(=O)c7ccc8c(c7)C(=O)OC87c8ccc(N(C)C)cc8C(C)(C)c8cc(N(C)C)ccc87)cc6)[nH]c5c4)[nH]c3c2)CC1  347 ± 22 nM
7. CNc1ccc2c(c1)C(C)(C)c1cc(NC)ccc1C21OC(=O)c2cc(C(=O)NCCCCOc3ccc(-c4nc5ccc(-c6nc7ccc(N8CCN(C)CC8)cc7[nH]6)cc5[nH]4)cc3)ccc21  155 ± 14 nM
